Measured values reported in publication PMC6736568, “Discovery of Novel Anti-cryptosporidial Activities From Natural Products by in vitro High-Throughput Phenotypic Screening” (Frontiers in Microbiology, 2019).
Structures can show the parent of a compound that is named as a salt. Where two headings read alike, the source gives them in different places.

How the values were obtained:
Cryptosporidium parvum = test: qRT-PCR assay of the growth of C. parvum in vitro in HCT-8 host cells (primary and secondary screening, EC50); type: cell-based; conditions: Cryptosporidium parvum
[1] = HCT-8, primary screening at 10 uM, read-out: Inhibition (%)
[2] = primary screening at 10 uM, treated vs control
[3] = HCT-8, secondary screening at 3.3 uM, read-out: % Inhibition (3.3 uM)

Row | SMILES | inhibition at 10 µM (Cryptosporidium parvum; [1]) | Hs18S ΔCT (HCT-8 host cells (Hs18S); human, 41 h, 10 μM) | cytotoxicity at 41 h, 10 µM (in vitro; human) | Hs18S ΔCT (HCT-8 host cells (Hs18S); [2]) | cytotoxicity at 10 µM (in vitro) | other results
1 | NCC(=O)c1ccccc1 [PHENACYLAMINE HYDROCHLORIDE] | 9.11% | 1.22 | 57% |  |  | 
2 | O=C(O)c1cc(O)c2c(c1)[C@H]([C@H]1c3cc(C(=O)O)cc(O)c3C(=O)c3c(O[C@@H]4O[C@H](CO)[C@@H](O)[C@H](O)[C@H]4O)cccc31)c1cccc(O[C@@H]3O[C@H](CO)[C@@H](O)[C@H](O)[C@H]3O)c1C2=O [SENNOSIDE A] | -4.71% |  |  | -0.08 | -6.1% | 
3 | COC(=O)c1c(OC)cc2c(c1C)Oc1c(Cl)c(O)c(Cl)c(C)c1C(=O)O2 [GANGALEOIDIN] | -21.6% | -0.05 | -3.3% |  |  | 
4 | CCCCCC1C(=O)CCC1CC(=O)OC (centres unmarked) [DIHYDROJASMONIC ACID, METHYL ESTER] | -8.77% | -0.06 | -4% |  |  | 
5 | COc1cc([C@@H]2c3cc4c(cc3[C@H](O)[C@H]3COC(=O)[C@@H]23)OCO4)cc(OC)c1OC [PICROPODOPHYLLIN] | 79.4% |  |  | 0.94 |  | inhibition at 3.3 µM (Cryptosporidium parvum; [3]): 56%; cytotoxicity at 41 h, 10 µM (in vitro): 47.8%
6 | CC[C@H](/C=C/[C@@H](C)[C@H]1CC[C@H]2[C@@H]3CC=C4C[C@@H](O)CC[C@]4(C)[C@H]3CC[C@]12C)C(C)C [STIGMASTEROL] | -18% |  |  | 0.96 | 48.6% | 
7 | C[C@H]1CC[C@]2(NC1)O[C@H]1C[C@H]3[C@@H]4CC[C@H]5C[C@@H](O[C@@H]6O[C@H](CO)[C@H](O[C@@H]7O[C@H](CO)[C@@H](O)[C@H](O[C@@H]8OC[C@@H](O)[C@H](O)[C@H]8O)[C@H]7O[C@@H]7O[C@H](CO)[C@@H](O)[C@H](O)[C@H]7O)[C@H](O)[C@H]6O)CC[C@]5(C)[C@H]4CC[C@]3(C)[C@H]1[C@@H]2C [TOMATINE] | 92.9% |  |  | 0.04 | 2.7% | inhibition at 3.3 µM (Cryptosporidium parvum; [3]): 25%
8 | O=c1cc[nH]c(=O)[nH]1 [URACIL] | 2.08% |  | -21.4% | -0.28 |  | 
9 | O=c1c(O)c(-c2ccc(O)cc2O)oc2cc(O)cc(O)c12 [MORIN] | 32.3% |  |  | -0.21 | -15.6% | 
10 | CC1=C(/C=C/C(C)=C/C=C/C(C)=C/C(=O)O)C(C)(C)CCC1 [TRETINOIN] | 7.49% | -0.28 | -21.5% |  |  | 
11 | C/C=C/c1ccc(OC)cc1 [ANETHOLE] | -5.3% | -0.08 | -5.8% |  |  | 
12 | O=c1ccc2ccc(O)cc2o1 [UMBELLIFERONE] | -15.7% |  |  |  | -88.9% | Hs18S ΔCT (HCT-8 host cells (Hs18S)): -0.92
13 | COc1cc2ccc(=O)oc2c2ccoc12 [SPHONDIN] | -5.49% |  |  | 0.32 | 20.1% | 
14 | CC1=CC(=O)c2c(O)cccc2C1=O [PLUMBAGIN] | 95.1% | 1.26 | 58.1% |  |  | inhibition at 3.3 µM (Cryptosporidium parvum; [3]): 13%
15 | Cc1cc(=O)oc2c(O)c(O)ccc12 [4-METHYLDAPHNETIN] | -23.7% | -0.22 | -16.6% |  |  | 
16 | CC(=O)Oc1cc(OC(C)=O)c2c(c1)O[C@H](c1ccc(OC(C)=O)c(OC(C)=O)c1)[C@@H](OC(C)=O)C2 [CATECHIN PENTAACETATE] | 10.7% |  |  | -0.26 | -19.6% | 
17 | NC[C@H]1O[C@H](O[C@H]2[C@H](O)[C@@H](O[C@H]3O[C@H](CO)[C@@H](O)[C@H](N)[C@H]3O)[C@H](N)C[C@@H]2N)[C@H](N)C[C@@H]1O [TOBRAMYCIN] | 4.08% | -0.49 | -40.8% |  |  | 
18 | CO[C@@H]1[C@@H](OC(N)=O)[C@@H](O)[C@H](Oc2ccc3c(O)c(NC(=O)c4ccc(O)c(CC=C(C)C)c4)c(=O)oc3c2C)OC1(C)C [NOVOBIOCIN SODIUM] | -13.6% | 0.10 | 6.5% |  |  | 
19 | C1CCN2C[C@@H]3C[C@@H](CN4CCCC[C@@H]34)[C@H]2C1 [SPARTEINE SULFATE] | -14.6% |  |  | 0.04 | 3% | 
20 | COC(=O)[C@H]1[C@H]2C[C@H]3c4[nH]c5ccccc5c4CCN3C[C@H]2CC[C@@H]1O [RAUWOLSCINE HYDROCHLORIDE] | 22.9% | -0.17 | -12.6% |  |  | 
21 | O=c1cc(-c2ccc(O)cc2)oc2cc(O)cc(O)c12 [APIGENIN] | -44.6% | 0.06 | 3.9% |  |  | 
22 | CN1[C@@H]2CC[C@H]1C[C@@H](OC(=O)C(CO)c1ccccc1)C2 (some centres unmarked) [ATROPINE SULFATE] | 3.7% |  |  | 0.26 | 16.3% | 
23 | N[C@@H](Cc1c[nH]c2ccccc12)C(=O)O [TRYPTOPHAN] |  | -0.75 | -68.2% |  |  | inhibition at 10 µM (Cryptosporidium parvum; HCT-8): 85.5%; inhibition at 3.3 µM (Cryptosporidium parvum; HCT-8, read-out: % Inhibition (3.3 uM)): 17%
24 | COc1cc(O)c(C(C)=O)c(OC)c1 [XANTHOXYLIN] | -20.7% | 0.08 | 5.4% |  |  | 

Row | SMILES | inhibition at 10 µM (Cryptosporidium parvum; [1]) | Hs18S ΔCT (HCT-8 host cells (Hs18S); human, 41 h, 10 μM) | cytotoxicity at 41 h, 10 µM (in vitro; human) | Hs18S ΔCT (HCT-8 host cells (Hs18S); [2]) | cytotoxicity at 10 µM (in vitro) | other results
25 | COC(=O)CC1C(C)(C)C(OC(C)=O)[C@@H]2[C@@H](OC(C)=O)[C@]34O[C@@]2(O)[C@]1(C)C3CC[C@]1(C)C4=CC(=O)O[C@H]1c1ccoc1 (some centres unmarked) [XYLOCARPUS A] | -11.9% | -0.48 | -39.2% |  |  | 
26 | O=C(/C=C/c1ccc(O)cc1)c1ccc(O)cc1O [ISOLIQUIRITIGENIN] | 52.9% | -0.34 | -26.4% |  |  | 
27 | COC(=O)c1c(C)c2c(c(C)c1O)OC(=O)c1c(C)c(Cl)c(O)c(Cl)c1O2 [LEOIDIN] | 16.7% | 0.41 | 24.9% |  |  | 
28 | C[N+](C)(C)CC(=O)O [BETAINE HYDROCHLORIDE] | 19.9% | -0.38 | -30% |  |  | 
29 | O=C(/C=C/c1ccccc1)c1ccc(O[C@@H]2O[C@H](CO)[C@@H](O)[C@H](O)[C@H]2O)cc1O [2',4'-DIHYDROXYCHALCONE 4'-GLUCOSIDE] | -19.5% | 0.03 | 1.9% |  |  | 
30 | C=CCSCC=C [DIALLYL SULFIDE] | 19.6% | -0.01 | -0.8% |  |  | 
31 | Oc1ccc([C@H]2Oc3cc(O)cc(O)c3C[C@H]2O)cc1 [EPIAFZELECHIN (2R,3R)(-)] | -2.1% | -0.14 | -10.2% |  |  | 
32 | O=C(O)/C=C/C=C/c1ccccc1 [JUAREZIC ACID] | -55.9% | -0.57 | -48.4% |  |  | 
33 | NC(Cn1ccc(=O)c(O)c1)C(=O)O (centres unmarked) [MIMOSINE] | -22% | -0.01 | -0.4% |  |  | 
34 | CC1=C(/C=C/C(C)=C/C=C/C(C)=C/C=C/C=C(C)/C=C/C=C(C)/C=C/C2=C(C)CCCC2(C)C)C(C)(C)CCC1 [beta-CAROTENE] | -34.8% | 0.04 | 2.8% |  |  | 
35 | COC1=CC(=O)C=C(OC)C1=O [2,6-DIMETHOXYQUINONE] | -5.86% |  |  | -0.06 | -4.3% | 
36 | N[C@@H](C(=O)O)[C@@H](O)[C@H](O)[C@H](O)CO [GLUCOSAMINIC ACID] | -5.48% | 0.22 | 13.9% |  |  | 
37 | Cn1c(=O)c2c(ncn2C)n(C)c1=O [CAFFEINE] | 3.94% |  |  |  | 16.9% | Hs18S ΔCT (HCT-8 host cells (Hs18S)): 0.27
38 | O=C(O[C@@H]1Cc2c(O)cc(O)cc2O[C@@H]1c1cc(O)c(=O)c2c(O)c(O)cc([C@H]3Oc4cc(O)cc(O)c4C[C@H]3O)c2c1)c1cc(O)c(O)c(O)c1 [THEAFLAVIN MONOGALLATES] | 25.6% | -0.10 | -7.4% |  |  | 
39 | O=c1c(O)c(-c2ccc(O)c(O)c2)oc2cc(O)cc(O)c12 [QUERCETIN] | 78.4% |  |  | 0.34 | 21.1% | inhibition at 3.3 µM (Cryptosporidium parvum; [3]): -27%
40 | O=c1cc(-c2ccccc2)oc2c(O)c(O)ccc12 [7,8-DIHYDROXYFLAVONE] | 49.3% |  |  | 0.49 | 28.8% | 
41 | COC1=CC(=O)C(C(=O)c2ccccc2)=CC1=O [2-BENZOYL-5-METHOXYBENZOQUINONE] | 16.2% | -0.59 | -50.7% |  |  | 
42 | O=C(/C=C/c1ccc(O)c(O)c1)O[C@@H]1C[C@](O)(C(=O)O)C[C@@H](O)[C@H]1O [CHLOROGENIC ACID] | -24.5% | -0.13 | -9.1% |  |  | 
43 | COc1ccc(-c2coc3cc(O)ccc3c2=O)c(O)c1O [KOPARIN] | 6.05% | -0.02 | -1.6% |  |  | 
44 | COc1ccc(-c2cc(=O)c3c(O)cc(O[C@@H]4O[C@H](CO[C@@H]5O[C@@H](C)[C@H](O)[C@@H](O)[C@H]5O)[C@@H](O)[C@H](O)[C@H]4O)cc3o2)cc1O [DIOSMIN] | 13.8% | -0.65 | -57.1% |  |  | 
45 | Cc1nccc2c1[nH]c1ccccc12 [HARMANE] | -23.2% |  |  | 0.07 | 4.5% | 
46 | N[C@@H](Cc1cc(I)c(Oc2cc(I)c(O)c(I)c2)c(I)c1)C(=O)O [LEVOTHYROXINE] | -12.4% | -0.03 | -2.2% |  |  | 
47 | C[C@@H](CO)NC(=O)[C@@H]1C=C2c3cccc4[nH]cc(c34)C[C@H]2N(C)C1 [ERGONOVINE MALEATE] | 2.56% |  |  | 0.23 | 14.5% | 
